The test system of the assay is BDF1 mice, intracerebral L1210 leukemia, survival T/C. Nature of the assay: NCI In Vivo Anticancer Drug Screen. Data for tumor model L1210 Leukemia (intracerebral) in B6D2F1 (BDF1) mice. Particulars: endpoint: mean survival time, higher = longer survival. The procedure, abridged: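 Transplantable tumour-bearing mice, compound-treated vs vehicle controls; read-out survival, reported as T/C ratio.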

The mark [1] stands for this setting: dose: 18.0 mg/kg/injection, schedule: Q01DX001 (ip), vehicle: saline.

“And” between values parts separate entries of the source, which are not always exact repeats. Equal entries are not always repeated. Toxic doses and inconclusive results are not listed.

Regarding `CCCCC(=O)N(c1ccc(Nc2c3ccccc3nc3cc([N+](=O)[O-])ccc23)cc1)S(C)(=O)=O`, the T/C is 96 % of control (dose: 3.18 mg/kg/injection, schedule: Q01DX009 (ip), vehicle: saline); 104 % of control (dose: 3.18 mg/kg/injection, schedule: Q01DX009 (sc), vehicle: saline); 99 % of control (dose: 6.25 mg/kg/injection, schedule: Q01DX009 (ip), vehicle: saline); 105 % of control (dose: 6.25 mg/kg/injection, schedule: Q01DX009 (sc), vehicle: saline); 101 % of control (dose: 12.5 mg/kg/injection, schedule: Q01DX009 (ip), vehicle: saline); 103 % of control (dose: 12.5 mg/kg/injection, schedule: Q01DX009 (sc), vehicle: saline). Moreover, the T/C is, setting by setting: (dose: 25.0 mg/kg/injection, schedule: Q01DX009 (ip), vehicle: saline) 97 % of control; (dose: 25.0 mg/kg/injection, schedule: Q01DX009 (sc), vehicle: saline) 102 % of control.
For the molecule `Nc1n[nH]c(N)n1`, the T/C by setting is: (dose: 100.0 mg/kg/injection, schedule: Q03HX024 (ip), vehicle: saline) 104 % of control and 97 % of control and 100 % of control; (dose: 150.0 mg/kg/injection, schedule: Q03HX024 (ip), vehicle: saline) 102 % of control and 104 % of control and 99 % of control; (dose: 225.0 mg/kg/injection, schedule: Q01DX Z (ip), vehicle: saline) 104 % of control; (dose: 225.0 mg/kg/injection, schedule: Q03HX024 (ip), vehicle: saline) 102 % of control and 108 % of control and 110 % of control; (dose: 335.0 mg/kg/injection, schedule: Q03HX024 (ip), vehicle: saline) 109 % of control and 119 % of control and 121 % of control; (dose: 375.0 mg/kg/injection, schedule: Q01DX Z (ip), vehicle: saline) 108 % of control. Further, the T/C is, setting by setting: (dose: 500.0 mg/kg/injection, schedule: Q03HX024 (ip), vehicle: saline) 109 % of control and 122 % of control; (dose: 750.0 mg/kg/injection, schedule: Q01DX Z (ip), vehicle: saline) 98 % of control.
With `CCOC(=O)[C@H]1CCC[C@@H](NC(=O)N(CCCl)N=O)C1`, the T/C is 103 % of control (dose: 14.0 mg/kg/injection, schedule: Q01DX001 (ip), vehicle: other); 104 % of control (dose: 21.0 mg/kg/injection, schedule: Q01DX001 (ip), vehicle: other); 111 % of control (dose: 31.0 mg/kg/injection, schedule: Q01DX001 (ip), vehicle: other); 109 % of control (dose: 47.0 mg/kg/injection, schedule: Q01DX001 (ip), vehicle: other).
Turning to `CCC(=O)NC1=C(N2CC2C)C(=O)C(NC(=O)CC)=C(N2CC2C)C1=O` (stereo not drawn), the T/C was 96 % of control (dose: 1.56 mg/kg/injection, schedule: Q01DX009 (ip), vehicle: Klucel (hydroxypropylcellulose) (HPC)); 94 % of control (dose: 3.12 mg/kg/injection, schedule: Q01DX009 (ip), vehicle: Klucel (hydroxypropylcellulose) (HPC)); 122 % of control and 335 % of control (dose: 12.5 mg/kg/injection, schedule: Q01DX009 (ip), vehicle: Klucel (hydroxypropylcellulose) (HPC)); 101 % of control and 107 % of control (dose: 25.0 mg/kg/injection, schedule: Q01DX009 (ip), vehicle: Klucel (hydroxypropylcellulose) (HPC)).
Regarding `O=NN(CCCl)C(=O)NC1CCC(O)CC1` (stereo not drawn), the T/C (dose: 13.0 mg/kg/injection, schedule: Q01DX001 (ip), vehicle: saline with Tween-80) was 152 % of control; the T/C (dose: 13.0 mg/kg/injection, schedule: Q01DX001 (ip), vehicle: saline) is 177 % of control; the T/C (dose: 20.0 mg/kg/injection, schedule: Q01DX001 (ip), vehicle: saline with Tween-80) was 418 % of control; the T/C (dose: 26.0 mg/kg/injection, schedule: Q01DX001 (ip), vehicle: saline) is 448 % of control; the T/C (dose: 30.0 mg/kg/injection, schedule: Q01DX001 (ip), vehicle: saline with Tween-80) is 479 % of control; the T/C (dose: 40.0 mg/kg/injection, schedule: Q01DX001 (ip), vehicle: saline) was 479 % of control. For the same molecule, the T/C is 286 % of control (dose: 44.0 mg/kg/injection, schedule: Q01DX001 (ip), vehicle: saline with Tween-80); 322 % of control (dose: 60.0 mg/kg/injection, schedule: Q01DX001 (ip), vehicle: saline); 96 % of control (dose: 67.0 mg/kg/injection, schedule: Q01DX001 (ip), vehicle: saline with Tween-80); 114 % of control (dose: 90.0 mg/kg/injection, schedule: Q01DX001 (ip), vehicle: saline).
With `O=NN(CCBr)C(=O)NCCBr`, the T/C (dose: 133.0 mg/kg/injection, schedule: Q01DX001 (ip), vehicle: carboxymethylcellulose (CMC)) was 112 % of control.
As to `O=NN(CCCl)C(=O)NC1CCCC1`, the T/C reads like this: under setting [1], 170 % of control; (dose: 19.0 mg/kg/injection, schedule: Q01DX001 (ip), vehicle: saline) 163 % of control and 234 % of control; (dose: 25.0 mg/kg/injection, schedule: Q01DX001 (ip), vehicle: saline) 157 % of control; (dose: 28.0 mg/kg/injection, schedule: Q01DX001 (ip), vehicle: saline) 264 % of control; (dose: 30.0 mg/kg/injection, schedule: Q01DX001 (ip), vehicle: saline) 157 % of control and 190 % of control; (dose: 38.0 mg/kg/injection, schedule: Q01DX001 (ip), vehicle: saline) 231 % of control and 244 % of control. Further, the T/C was 250 % of control (dose: 42.0 mg/kg/injection, schedule: Q01DX001 (ip), vehicle: saline); 234 % of control (dose: 44.0 mg/kg/injection, schedule: Q01DX001 (ip), vehicle: saline); 333 % of control (dose: 50.0 mg/kg/injection, schedule: Q01DX001 (ip), vehicle: saline); 278 % of control (dose: 64.0 mg/kg/injection, schedule: Q01DX001 (ip), vehicle: saline); 209 % of control (dose: 67.0 mg/kg/injection, schedule: Q01DX001 (ip), vehicle: saline); 431 % of control and 485 % of control (dose: 75.0 mg/kg/injection, schedule: Q01DX001 (ip), vehicle: saline). The T/C is, setting by setting: (dose: 100.0 mg/kg/injection, schedule: Q01DX001 (ip), vehicle: saline) 257 % of control and 284 % of control; (dose: 150.0 mg/kg/injection, schedule: Q01DX001 (ip), vehicle: saline) 273 % of control and 342 % of control and 363 % of control; (dose: 220.0 mg/kg/injection, schedule: Q01DX001 (ip), vehicle: saline) 101 % of control.
Take `CN(N=O)C(N)=O`: the T/C was 102 % of control under setting [1]; 110 % of control (dose: 36.0 mg/kg/injection, schedule: Q01DX001 (ip), vehicle: saline); 152 % of control (dose: 72.0 mg/kg/injection, schedule: Q01DX001 (ip), vehicle: saline).
With `N#[N+]c1cnc([O-])[nH]c1=O`, the T/C reads like this: (dose: 5.0 mg/kg/injection, schedule: Q01DX015 (ip), vehicle: alkali diluted with saline) 102 % of control; (dose: 7.7 mg/kg/injection, schedule: Q01DX015 (ip), vehicle: alkali diluted with saline) 101 % of control; (dose: 11.5 mg/kg/injection, schedule: Q01DX015 (ip), vehicle: alkali diluted with saline) 106 % of control; (dose: 12.0 mg/kg/injection, schedule: Q01DX001 (ip), vehicle: alkali diluted with saline) 97 % of control; (dose: 15.0 mg/kg/injection, schedule: Q01DX Z (ip), vehicle: alkali diluted with saline) 101 % of control; (dose: 19.0 mg/kg/injection, schedule: Q01DX001 (ip), vehicle: alkali diluted with saline) 102 % of control. Further, the T/C reads like this: (dose: 20.0 mg/kg/injection, schedule: Q01DX Z (ip), vehicle: alkali diluted with saline) 97 % of control; (dose: 25.0 mg/kg/injection, schedule: Q01DX Z (ip), vehicle: alkali diluted with saline) 92 % of control; (dose: 29.0 mg/kg/injection, schedule: Q01DX001 (ip), vehicle: alkali diluted with saline) 106 % of control; (dose: 40.0 mg/kg/injection, schedule: Q01DX Z (ip), vehicle: alkali diluted with saline) 91 % of control.

For the origin of these results see PubChem BioAssay AID252 (DTP/NCI, 2004).
